Results on 60 molecules are retold here after patent publication US20170280720A1, “ARGININE […] INHIBITORS AND USES THEREOF” (EPIZYME, INC., priority 2014, published 2017).

The target in one test is T1, Human CARM1 (PRMT4) (Homo sapiens, UniProt Q86X55).
T1 construct: Flag-CARM1-His; made in house; host or cells: HEK 293F cells (BacMam baculovirus, pFastBacMam)
T1 sequence (Q86X55 2-585 isoform Q86X55-1): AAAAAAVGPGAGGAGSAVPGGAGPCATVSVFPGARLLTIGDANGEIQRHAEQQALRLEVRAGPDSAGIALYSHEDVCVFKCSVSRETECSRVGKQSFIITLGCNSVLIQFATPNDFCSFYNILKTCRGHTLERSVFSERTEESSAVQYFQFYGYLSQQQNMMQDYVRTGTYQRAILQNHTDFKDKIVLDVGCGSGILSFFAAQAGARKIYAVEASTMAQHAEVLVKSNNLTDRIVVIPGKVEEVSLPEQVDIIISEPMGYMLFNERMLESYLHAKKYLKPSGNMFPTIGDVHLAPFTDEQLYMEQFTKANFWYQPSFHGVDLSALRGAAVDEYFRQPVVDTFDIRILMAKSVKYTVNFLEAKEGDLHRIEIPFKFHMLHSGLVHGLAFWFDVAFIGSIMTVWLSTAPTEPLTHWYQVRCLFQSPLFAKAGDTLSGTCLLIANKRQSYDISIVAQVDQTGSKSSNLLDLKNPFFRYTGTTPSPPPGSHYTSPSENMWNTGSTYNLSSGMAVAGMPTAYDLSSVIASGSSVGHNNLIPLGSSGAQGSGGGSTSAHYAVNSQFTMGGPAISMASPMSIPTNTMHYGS
Kind of test: CARM1 biochemical assay (3H-SAM Flashplate, peptide substrate). Particulars: read-out: CARM1_ IC50. The method, boiled down: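 FLAG/His-tagged human CARM1 (isoform 1, Δ539-561, baculovirus-expressed), 0.25 nM, preincubated 30 min at room temperature with compound (2% DMSO) in 20 mM Bicine pH 7.6, then reacted with 30 nM 3H-SAM and 250 nM biotinylated H3 16-30 peptide (R26 monomethyl). Stopped with 300 uM cold SAM; labelled peptide captured on streptavidin Flashplate; % inhibition versus DMSO and 1 mM SAH controls fitted to a 4- or 3-parameter curve.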
Regarding `CC(C)n1ncc2c(C(=O)NCc3c(F)cccc3F)cc(-c3cccc(CNCCN)c3)nc21` [Compound 168], the IC50 (usually the midpoint of a concentration-inhibition curve) turned out to be 23.3 nM.

As for `CNCCN(C)Cc1cccc(-c2ccc3ncn(C(C)C)c3c2)c1` [Compound 28], the IC50 worked out at 12200 nM.

In the case of `CNCCN(C)Cc1cccc(-c2cc(C(=O)NCC3CCOCC3)c3cnn(C4CC4)c3n2)c1` [Compound 26], the IC50 is 26.6 nM.

`CNCCN(C)Cc1cc(-c2cc(C(=O)NC3CCOCC3)c3cnn(C(C)C)c3n2)ccc1F` [Compound 130]: the IC50 was 131 nM.

On to `CC(C)n1ncc2c(C(=O)NCc3ccncc3)cc(-c3cccc(CNCCN)c3)nc21` [Compound 150], for which the IC50 is 274 nM.

Consider `CN(CCN)Cc1ccc(-c2ccc3ncn(-c4ccccc4)c3c2)cc1` [Compound 19], for which the IC50 is 12600 nM.

`CC(C)n1ncc2c(C(=O)NCC3CCN(C)CC3)cc(-c3cccc(CN(C)CCN(C)C)c3)nc21` [Compound 162]: the IC50 stood at 91.6 nM.

Consider `CC(C)n1cnc2cc(-c3cccc(CN(C)CCN)c3)ccc21` [Compound 32], for which the IC50 came to 7040 nM.

On to `CC(C)n1ncc2c(C(=O)NCc3ccccc3)cc(-c3cccc(CN(C)CCN)c3)cc21` [Compound 14], for which the IC50 came to 135 nM.

For the molecule `CN(CCN)Cc1cccc(-c2nc(NCc3nccs3)c3cnn(C4CC4)c3n2)c1` [Compound 1], the IC50 is 3.56 nM.

For `CNCCN(C)Cc1cccc(-c2nc(NCc3cc(C)nn3C)c3cnn(C4CC4)c3n2)c1` [Compound 17], the IC50 was found to be 8.42 nM.

As for `CNCCN(C)Cc1cccc(-c2cc(OCC(F)(F)F)c3cnn(C(C)C)c3n2)c1` [Compound 154], the IC50 was 46.9 nM.

For `CNCCN(C)Cc1cccc(-c2cc(NC3CC3)c3cnn(C(C)C)c3n2)c1` [Compound 11], the IC50 amounted to 32.8 nM.

Take `CNCCN(C)Cc1cccc(-c2cc(NS(=O)(=O)C(F)(F)F)c3cnn(C(C)C)c3n2)c1` [Compound 164]: the IC50 was 358 nM.

Turning to `CC(C)n1ncc2c(C(=O)NC3CCOCC3)cc(-c3cccc(CN(C)CCN)c3)nc21` [Compound 148], the IC50 stood at 10.9 nM.

On to `CC(C)n1cnc2cc(-c3ccc(CN(C)CCN)cc3)ccc21` [Compound 46], for which the IC50 worked out at 10000 nM.

`CNCCN(C)Cc1cccc(-c2cnc3c(c2)c(Br)nn3CC2CCOCC2)c1` [Compound 39]: the IC50 turned out to be 6790 nM.

In the case of `CC(C)n1ncc2c(C(=O)NCc3ccccc3)cc(-c3cccc(CNCCN)c3)cc21` [Compound 134], the IC50 was found to be 334 nM.

Take `CNCCN(C)Cc1cccc(-c2cc(C(=O)NCc3c(F)cccc3F)c3cnn(C(C)C)c3n2)c1` [Compound 47]: the IC50 turned out to be 22.4 nM.

For the molecule `CC(C)n1ncc2c(C(=O)NCc3ccc(F)cc3)cc(-c3cccc(CN(C)CCN)c3)nc21` [Compound 25], the IC50 came out at 32.9 nM.

Turning to `CNCCN(C)Cc1cccc(-c2nc(NC3CCOCC3)c3cnn(C(C)(C)C)c3n2)c1` [Compound 27, N1-(3-(1-tert-butyl-4-(tetrahydro-2H-pyran-4-ylamino)-1H-pyrazolo[3,4-d]pyrimidin-6-yl)benzyl)-N1,N2-dimethylethane-1,2-diamine], the IC50 amounted to 4.25 nM.

Turning to `CC(C)n1ncc2c(C(=O)NCc3ccccc3)cc(-c3cccc(CNCCN)c3)nc21` [Compound 155], the IC50 was determined as 115 nM.

As for `CCS(=O)(=O)Nc1cc(-c2cccc(CN(C)CCNC)c2)nc2c1cnn2C(C)C` [Compound 161], the IC50 stood at 169 nM.

Turning to `CNCCN(C)Cc1cccc(-c2cc(C(=O)NC3CCOCC3)c3cnn(C4CCC4)c3n2)c1` [Compound 29], the half-inhibitory concentration (IC50) came to 92.4 nM.

On to `CNCCN(C)Cc1cccc(-c2cc(C(=O)NCc3cnn(C)c3C)c3cnn(C(C)C)c3n2)c1` [Compound 137], for which the concentration for half-maximal inhibition (IC50) stood at 6.06 nM.

Regarding `CC(C)n1ncc2c(C(=O)NCC3CCOCC3)cc(-c3cccc(CN(C)CCNC4CC4)c3)nc21` [Compound 167], the IC50 amounted to 98.2 nM.

Consider `CC(C)n1cc2c(N)cc(-c3cccc(CN(C)CCN)c3)nc2n1` [Compound 13], for which the IC50 was 1710 nM.

With `CNCCN(C)Cc1cccc(-c2cc(NC(=O)NC)c3cnn(C(C)C)c3n2)c1` [Compound 138], the IC50 is 18.7 nM.

Regarding `CNCCN(C)Cc1cccc(-c2ccc3cn(Cc4ccccc4)nc3n2)c1` [Compound 35], the IC50 was found to be 4960 nM.

As for `CC(C)n1ncc2c(C(=O)N3CCCCC3)cc(-c3cccc(CNCCN)c3)nc21` [Compound 153], the 50% inhibitory concentration (IC50) was found to be 195 nM.

In the case of `CN(CCN)Cc1cccc(-c2cc(C(=O)NC3CCOCC3)c3cnn(C)c3n2)c1` [Compound 158], the IC50 was found to be 38.5 nM.

As to `CCn1ncc2c(C(=O)N[C@@H](C)c3ccccc3)cc(-c3cccc(CN(C)CCNC)c3)nc21` [Compound 33], the IC50 was 79.7 nM.

`CN(CCN)Cc1cccc(-c2cc(C(=O)NC3CCOCC3)c3cnn(CC(F)(F)F)c3n2)c1` [Compound 144]: the IC50 was found to be 26.7 nM.

As to `CNC(=O)Nc1cc(-c2cccc(CN(C)CCN)c2)nc2c1cnn2C(C)C` [Compound 126], the IC50 amounted to 7.96 nM.

`CN(CCN)Cc1cccc(-c2nc(NCc3cccnc3)c3cnn(C4CC4)c3n2)c1` [Compound 40]: the IC50 is 7.14 nM.

`CNCCN(C)Cc1cccc(-c2cc(NS(=O)(=O)N(C)C)c3cnn(C(C)C)c3n2)c1` [Compound 139]: the IC50 was found to be 37.3 nM.

As to `CC(C)n1ncc2c(C(=O)N[C@@H](C)c3ccccc3)cc(-c3cccc(CN(C)CCN)c3)cc21` [Compound 10], the half-maximal inhibitory concentration (IC50) is 45.2 nM.

With `CNCCN(C)Cc1cccc(-c2cc(N)c3cnn(C(C)C)c3n2)c1` [Compound 151], the IC50 was determined as 92.1 nM.

Take `CNCCN(C)Cc1cccc(-c2cc(NS(C)(=O)=O)c3cnn(C(C)C)c3n2)c1` [Compound 170]: the concentration for half-maximal inhibition (IC50) amounted to 264 nM.

`CN(CCN)Cc1cccc(-c2nc(NC3CCOCC3)c3cnn(C(C)(C)C)c3n2)c1` [Compound 18]: the IC50 was determined as 5.83 nM.

Consider `CCC(=O)c1cc(-c2cccc(CN(C)CCNC)c2)nc2c1cnn2C(C)C` [Compound 128], for which the IC50 worked out at 30.8 nM.

Consider `CNCCN(C)Cc1cccc(-c2cc(NS(C)(=O)=O)c3cnn(C(C)C)c3n2)c1` [Compound 169], for which the IC50 worked out at 125 nM.

As to `CNCCN(C)Cc1cccc(-c2cc(Nc3ncc(C)s3)c3cnn(C(C)C)c3n2)c1` [Compound 20], the IC50 was found to be 14 nM.

Consider `CNCCN(C)Cc1cccc(-c2cc(C(=O)NCC3CCOCC3)c3cnn(C4CCC4)c3n2)c1` [Compound 21], for which the IC50 turned out to be 43.9 nM.

As for `CC(C)n1ncc2c(N3CCOCC3)cc(-c3cccc(CN(C)CCNC4CC4)c3)nc21` [Compound 163], the IC50 worked out at 161 nM.

Consider `CNCCN(C)Cc1cccc(-c2cnc3c(c2)OCC(=O)N3)c1` [Compound 355], for which the IC50 turned out to be 10000 nM.

Consider `CNCCN(C)Cc1cccc(-c2cc(C(=O)NCc3ccccc3F)c3cnn(C(C)C)c3n2)c1` [Compound 38], for which the IC50 turned out to be 18.7 nM.

In the case of `CNCCN(C)Cc1cccc(-c2cc(C(=O)N3CCc4ccccc4C3)c3cnn(C(C)C)c3n2)c1` [Compound 42], the IC50 was 84.1 nM.

Take `CC(C)n1ncc2c(NC3CC3)cc(-c3cccc(CN(C)CCN)c3)nc21` [Compound 41]: the IC50 amounted to 13.4 nM.

`CC(C)n1ncc2c(C(=O)NCc3ccccc3F)cc(-c3cccc(CNCCN)c3)nc21` [Compound 159]: the IC50 is 175 nM.

On to `CC(C)n1ncc2c(C(=O)NCc3c(F)cccc3F)cc(-c3cccc(CN(C)CCN)c3)nc21` [Compound 37], for which the IC50 worked out at 5.47 nM.

Turning to `CC(C)n1ncc2c(C(=O)N3CCCCC3)cc(-c3cccc(CN(C)CCN)c3)nc21` [Compound 43], the IC50 was determined as 176 nM.

Regarding `Cc1nn(C(C)C)c2nc(-c3cccc(CN(C)CCN)c3)cc(N3CCOCC3)c12` [Compound 22, N1-(3-(1-isopropyl-3-methyl-4-morpholino-1H-pyrazolo[3,4-b]pyridin-6-yl)benzyl)-N1-methylethane-1,2-diamine], the IC50 was 8.97 nM.

Take `CNCCN(C)Cc1cccc(-c2ccc3ncn(C4CCOCC4)c3c2)c1` [Compound 30]: the IC50 is 852 nM.

As to `NCCNCc1ccc(-c2cnc3c(c2)OCC(=O)N3)cc1` [Compound 358], the IC50 is 6290 nM.

For `CNCCN(C)Cc1cccc(-c2cc(Oc3ccccc3)c3cnn(C(C)C)c3n2)c1` [Compound 45], the IC50 amounted to 84.1 nM.

For `CNCCN(C)Cc1cccc(-c2cc(NC(=O)NC3CCOCC3)c3cnn(C(C)C)c3n2)c1` [Compound 133], the IC50 was 12 nM.

Take `CN(CCN)Cc1cccc(-c2cc(C(=O)NC3CCOCC3)c3cnn(C4CC4)c3n2)c1` [Compound 142]: the IC50 came out at 9.43 nM.

For `CNCCN(C)Cc1cccc(-c2ccc3c(c2)ncn3CCOC)c1` [Compound 34], the IC50 stood at 10000 nM.

Regarding `CNCCN(C)Cc1cccc(-c2cc(C(=O)N[C@@H](C)c3ccccc3)c3cn[nH]c3n2)c1` [Compound 12], the IC50 amounted to 79.3 nM.

The target in a further test is PRMT5 (Homo sapiens, UniProt O14744). Kind of test: PRMT5 IC50 (Table 2; no method described). The class given is biochemical. Conditions: read-out: PRMT5_ IC50.
Sequence of PRMT5 (O14744 whole entry, species assumed): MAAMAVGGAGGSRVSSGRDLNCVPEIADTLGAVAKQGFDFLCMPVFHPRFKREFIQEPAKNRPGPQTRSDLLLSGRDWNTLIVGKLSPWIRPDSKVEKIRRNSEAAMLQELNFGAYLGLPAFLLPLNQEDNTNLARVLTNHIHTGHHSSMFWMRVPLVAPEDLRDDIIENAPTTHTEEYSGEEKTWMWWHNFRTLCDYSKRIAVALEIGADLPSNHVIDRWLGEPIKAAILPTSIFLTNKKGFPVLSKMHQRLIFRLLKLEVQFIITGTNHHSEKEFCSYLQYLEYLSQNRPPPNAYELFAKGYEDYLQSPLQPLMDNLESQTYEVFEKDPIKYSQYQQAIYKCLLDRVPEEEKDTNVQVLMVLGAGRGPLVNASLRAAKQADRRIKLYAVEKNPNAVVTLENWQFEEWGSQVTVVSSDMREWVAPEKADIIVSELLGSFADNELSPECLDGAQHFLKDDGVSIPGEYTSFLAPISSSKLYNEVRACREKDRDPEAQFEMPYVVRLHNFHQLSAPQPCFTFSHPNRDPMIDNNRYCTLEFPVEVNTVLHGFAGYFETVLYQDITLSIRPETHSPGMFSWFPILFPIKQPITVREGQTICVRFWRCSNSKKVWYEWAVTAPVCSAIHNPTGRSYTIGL
Sequence of PRMT5 (Q9BQA1 whole entry partner, species assumed): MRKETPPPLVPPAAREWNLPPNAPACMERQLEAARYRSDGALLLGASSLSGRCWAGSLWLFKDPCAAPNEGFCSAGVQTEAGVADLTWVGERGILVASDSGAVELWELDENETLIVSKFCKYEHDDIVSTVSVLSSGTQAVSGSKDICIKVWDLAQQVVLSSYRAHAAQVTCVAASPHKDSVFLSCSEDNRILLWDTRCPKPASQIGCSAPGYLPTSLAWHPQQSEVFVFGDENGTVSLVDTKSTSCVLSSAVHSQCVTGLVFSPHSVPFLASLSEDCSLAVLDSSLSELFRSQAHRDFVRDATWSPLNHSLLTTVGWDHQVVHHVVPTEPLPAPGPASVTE
Consider `CC(C)n1ncc2c(C(=O)NCc3ccncc3)cc(-c3cccc(CNCCN)c3)nc21` [Compound 150], for which the IC50 stood at 23900 nM.

On to `CN(CCN)Cc1ccc(-c2ccc3ncn(-c4ccccc4)c3c2)cc1` [Compound 19], for which the IC50 came to 34700 nM.

As for `CC(C)n1ncc2c(C(=O)NCC3CCN(C)CC3)cc(-c3cccc(CN(C)CCN(C)C)c3)nc21` [Compound 162], the IC50 stood at 50000 nM.
